Data from patent US4598068A, “Benzylphenyl osides, method of preparation and use therefor” (Societe de Recheres Industrielles, priority 1983, dated 1986).

Experiments:
[1] = Acute toxicity, intraperitoneal administration to mice; type: in vivo; conditions: mouse, in vivo, ip, read-out: LD50 (lethal dose causing the death of half of the animals)
Source text: (§1) The acute toxicity was studied by intraperitoneal administration to mice. It is expressed in the form of LD50 (lethal dose causing the death of half of the animals) or LD0 (maximum non-lethal dose).

[2] = tested on: cholesterol level in the plasma; assay: Hypocholesterolemic activity: plasma cholesterol level in rats; type: in vivo, male Wistar rats; conditions: Rattus norvegicus, po, T=0 to T=+24 hours, not corrected for the variation in the control group, read-out: % Variation in the cholesterol level, variation in the subject treated; for change in vivo at 65 mg/kg: 65 mg/kg p.o. at T=0 and T=+7 hours; for change in vivo at 100 mg/kg: 100 mg/kg p.o. at T=0 and T=+7 hours
Description: Hypocholesterolemic activity
The hypocholesterolemic activity was studied on male Wistar rats (weighing about 200 to 220 g). Groups of 10 rats per product and per dose are fasted the day before the experiment. The products to be tested are administered in gum water (30 g/liter of gum arabic) at times T=0 and T=+7 hours. The cholesterol level in the plasma is measured at times T=0 and T=+24 hours and the percentage variation between T=0 and T=+24 hours is then calculated for the treated groups and the control groups.

[3] = Antithrombotic effects (statement only); conditions: in words
[4] = tested on: mice; assay: Acute toxicity, intraperitoneal administration to mice; type: in vivo; conditions: i.p.
Source text: as §1

Row | SMILES | LD0 (maximum non-lethal dose) [4] [mg/kg] | change in vivo at 100 mg/kg [2] [%] | further results
1 | O=[N+]([O-])c1ccc(Cc2ccc(O[C@@H]3OC[C@@H](O)[C@H](O)[C@H]3O)cc2)cc1 [Example 1, 4-(4-nitrobenzyl)phenyl β-D-xylopyranoside] |  |  | LD50 [1]: 650 mg/kg; change in vivo at 65 mg/kg [2]: -39%; antithrombotic effects [3]: beneficial antithrombotic effects
2 | O=[N+]([O-])c1cccc(Cc2ccc(O[C@@H]3OC[C@@H](O)[C@H](O)[C@H]3O)cc2)c1 [Example 2, 4-(3-nitrobenzyl)phenyl β-D-xylopyranoside] | > 800 | -27 | 
3 | CC(=O)N[C@H]1[C@H](Oc2ccc(Cc3ccc([N+](=O)[O-])cc3)cc2)O[C@H](CO)[C@@H](O)[C@@H]1O [Example 3] | > 800 | -42 | 
4 | O=[N+]([O-])c1ccc(Cc2ccc(O[C@@H]3O[C@H](CO)[C@H](O)[C@H](O)[C@H]3O)cc2)cc1 [Example 4] | ≥ 900 | -33 | 
5 | C[C@@H]1O[C@@H](Oc2ccc(Cc3ccc([N+](=O)[O-])cc3)cc2)[C@H](O)[C@H](O)[C@H]1O [Example 5] |  | -7 | 
6 | O=[N+]([O-])c1ccc(Cc2ccc(O[C@@H]3OC[C@H](O)[C@H](O)[C@H]3O)cc2)cc1 [Example 6] | ≥ 900 | -29 | 
7 | O[C@@H]1[C@@H](O)[C@H](Oc2ccc(Cc3ccccc3Cl)cc2)OC[C@H]1O [Example 7] | > 800 | -20 | 
8 | O[C@@H]1[C@@H](O)[C@H](Oc2ccc(Cc3cccc(Cl)c3)cc2)OC[C@H]1O [Example 8] |  | -37 | LD50 [1]: ≥ 800 mg/kg
9 | O[C@@H]1[C@@H](O)[C@H](Oc2ccc(Cc3ccc(Cl)cc3)cc2)OC[C@H]1O [Example 9, 4-(4-chlorobenzyl)phenyl β-D-xylopyranoside] | > 800 | -37 | 
10 | O[C@@H]1[C@@H](O)[C@H](Oc2ccc(Cc3ccc(Br)cc3)cc2)OC[C@H]1O [Example 10] | ≥ 900 | -39 | 
11 | Cc1ccc(Cc2ccc(O[C@@H]3OC[C@@H](O)[C@H](O)[C@H]3O)cc2)cc1 [Example 11] | > 800 | -19 | 
12 | Cc1ccccc1Cc1ccc(O[C@@H]2OC[C@@H](O)[C@H](O)[C@H]2O)cc1 [Example 12] | > 800 | -28 | 
13 | Cc1cccc(Cc2ccc(O[C@@H]3OC[C@@H](O)[C@H](O)[C@H]3O)cc2)c1 [Example 13] | ≥ 800 | -24 | 
14 | COc1ccc(Cc2ccc(O[C@@H]3OC[C@@H](O)[C@H](O)[C@H]3O)cc2)cc1 [Example 15] | > 800 | -47 | 
15 | COc1cccc(Cc2ccc(O[C@@H]3OC[C@@H](O)[C@H](O)[C@H]3O)cc2)c1 [Example 17] | > 1000 | -50 | 
16 | O[C@@H]1[C@@H](O)[C@H](Oc2ccc(Cc3ccc(C(F)(F)F)cc3)cc2)OC[C@H]1O [Example 18] |  | -17 | LD50 [1]: > 900 mg/kg
17 | Nc1ccc(Cc2ccc(O[C@@H]3OC[C@@H](O)[C@H](O)[C@H]3O)cc2)cc1 [Example 19] | > 800 | -29 | 
18 | CN(C)c1ccc(Cc2ccc(O[C@@H]3OC[C@@H](O)[C@H](O)[C@H]3O)cc2)cc1 [Example 20] |  | -22 | 

Row | SMILES | LD0 (maximum non-lethal dose) [4] [mg/kg] | change in vivo at 100 mg/kg [2] [%] | further results
19 | Nc1cccc(Cc2ccc(O[C@@H]3OC[C@@H](O)[C@H](O)[C@H]3O)cc2)c1 [Example 23] | ≥ 900 | -28 | 
20 | O[C@@H]1[C@@H](O)[C@H](Oc2ccc(Cc3ccc(Cl)cc3Cl)cc2)OC[C@H]1O [Example 26] |  | -8 | LD50 [1]: 640 mg/kg
21 | Cc1cc(C)c(Cc2ccc(O[C@@H]3OC[C@@H](O)[C@H](O)[C@H]3O)cc2)c(C)c1 [Example 27] | ≥ 800 | -13 | 
22 | Oc1ccc(Cc2ccc(O[C@@H]3OC[C@@H](O)[C@H](O)[C@H]3O)cc2)cc1 [Example 29] | ≥ 800 | -37 | 
23 | Cc1ccc(Cc2cc(C)c(OC3OC[C@@H](O)[C@H](O)[C@H]3O)c(C)c2)cc1 (stereo partly drawn) [Example 30] |  | -12 | LD50 [1]: 630 mg/kg
24 | O[C@@H]1[C@@H](O)[C@H](Oc2ccc(Cc3ccccc3)cc2)OC[C@H]1O [Example 33, 4-(benzyl)phenyl β-D-xylopyranoside] | > 800 | -38 | 
25 | O=[N+]([O-])c1cc(Cc2ccccc2)ccc1O[C@@H]1OC[C@@H](O)[C@H](O)[C@H]1O [Example 34] |  |  | LD50 [1]: 250 mg/kg; change in vivo at 25 mg/kg ([2]; 25 mg/kg p.o. at T=0 and T=+7 hours): -15%
26 | CC(=O)O[C@@H]1[C@@H](OC(C)=O)[C@H](Oc2ccc(Cc3c(C)cc(C)cc3C)cc2)OC[C@H]1OC(C)=O [Example 62] | > 900 | -18 | 
27 | O=[N+]([O-])c1ccc(Cc2ccc(O[C@@H]3O[C@H](CO)[C@@H](O)[C@H](O)[C@H]3O)cc2)cc1 [Example 71] | ≥ 900 |  | change in vivo at 65 mg/kg [2]: -21%
28 | O[C@@H]1[C@@H](O)[C@H](Oc2cccc(Cc3ccc(Cl)cc3)c2)OC[C@H]1O [Example 75] |  | -43 | 
29 | O[C@@H]1[C@@H](O)[C@H](Oc2cccc(Cc3ccccc3)c2)OC[C@H]1O [Example 77] |  | -25 | 
30 | Cc1cc(Cc2ccccc2)ccc1O[C@@H]1OC[C@@H](O)[C@H](O)[C@H]1O [Example 79] |  |  | LD50 [1]: 320 mg/kg; change in vivo at 30 mg/kg ([2]; 30 mg/kg p.o. at T=0 and T=+7 hours): -37%
31 | Cc1cc(Cc2ccc([N+](=O)[O-])cc2)cc(C)c1OC1OC[C@@H](O)[C@H](O)[C@H]1O (stereo partly drawn) [Example 82] | > 800 |  | 
32 | CSc1ccc(Cc2ccc(O[C@@H]3OC[C@@H](O)[C@H](O)[C@H]3O)cc2)cc1 [Example 85, 4-(4-methylthiobenzyl)phenyl β-D-xylopyranoside] | > 800 | -23 | 
33 | CS(=O)(=O)c1ccc(Cc2ccc(O[C@@H]3OC[C@@H](O)[C@H](O)[C@H]3O)cc2)cc1 [Example 89, 4-(4-mesylbenzyl)phenyl β-D-xylopyranoside] |  |  | LD50 [1]: 450 mg/kg; change in vivo at 45 mg/kg ([2]; 45 mg/kg p.o. at T=0 and T=+7 hours): -30%
34 | CS(=O)(=O)c1ccc(Cc2ccc(O[C@@H]3O[C@H](CO)[C@@H](O)[C@H](O)[C@H]3O)cc2)cc1 [Example 91, 4-(4-mesylbenzyl)phenyl β-D-glucopyranoside] | > 800 | -40 | 
35 | CC(=O)N[C@H]1[C@H](Oc2ccc(Cc3ccc(S(C)(=O)=O)cc3)cc2)O[C@H](CO)[C@@H](O)[C@@H]1O [Example 93, 4-(4-mesylbenzyl)phenyl β-D-N-acetylglucosaminopyranoside] | > 800 | -36 | 
